Measurements from US20210252094A1, “COMPOSITION FOR IMPROVING SLEEP DISORDERS CAUSED BY CAFFEINE CONTAINING CITRUS RIND EXTRACT” (NOAHS CO., LTD., priority 2018, published 2021).
Entries after “also recorded” stand apart in the source; their conditions may differ.

Tested on: brain hippocampal slices
Assay: Measurement of neural activity of cultured hippocampal slices on microelectrode array (MEA), caffeine-induced
Format: cell-based, Sprague Dawley white young rat
Settings: for neural activity after washing: 1 mM caffeine plus sample (extract 400 μg/ml, hesperidin 40 μg/ml, narirutin 136 μg/ml), then washed 20 min with artificial cerebrospinal fluid only; for degree of neural activity compared to treatment of caffeine alone: perfused 20 min with 1 mM caffeine plus sample (citrus unshiu peel extract 400 μg/ml, hesperidin 40 μg/ml, narirutin 136 μg/ml), before washing
Text: A method of organotypic culturing of slices of the brain hippocampus using a thin film used an already commonly used method. Specifically, the brain hippocampus was extracted from a Sprague Dawley white young rat (Orientbio Co., Seungnam, Korea) of 5- to 7-day old, and sliced to a thickness of 350 μm using a tissue slicer (Mickle Laboratory Engineering Co., UK). After 5 to 6 slices were disposed into a thin film insert (Millicell-CM; Millipore, MA) with 0.4-μm holes, put in a 6-well plate (SPL Life Sciences Co., Korea), and then cultured in an incubator kept with 5% CO2 at 36° C. (Dong-A Co., Seoul, Korea). A culture solution (MEM; Welgene, Gyeongsan, South Korea), 20 mM HEPES (Sigma, St. Louis, Mo., USA), a 25% Hank's balanced salt solution (HBSS; Welgene, Gyeongsan, South Korea), 6 g/L D-glucose (Sigma, St. Louis, Mo., USA), 1 mM L-glutamine (Sigma, St. Louis, Mo., USA), 25% horse serum (Welgene, Gyeongsan, South Korea), and 1% penicillin-streptomycin (Gibco BRL, USA), pH=7.1) were changed once every two days, and the culture period was 12 to 14 days, and then used in a subsequent experiment (FIG. 5). After the cultured brain hippocampal slices were carefully isolated from the cultured thin film insert using a pin, the brain hippocampal slices were placed on a 8×8 microelectrode array (MEA; Multi Channel Systems, Germany) with a diameter of 10 μm and an interval of 100 μm coated with 0.01% polyethyleneimine (Sigma, St. Louis, Mo., USA). […] Thereafter, the MEA containing the brain hippocampus was mounted on an amplification device MEA1060 (Multi Channel Systems Inc., Reutlingen, Germany), and the artificial spinal cord solution in the MEA was grounded with Ag/AgCl. During the subsequent experiment, the artificial spinal cord solution into which the 5% CO2 and 95% 02 mixed gas was added was perfused at a rate of 3 mL/min, and the MEA and the artificial spinal cord solution were maintained at 33° C. (FIG. 6) . […] The MEA with the hippocampal tissue read data at a sampling rate of 25 kHz for each channel through a total of 60 channels, and was recorded through a computer using MC_Rack and MC_Data Tool (Multi Channel Systems, GmbH) software. A 4-stage band pass filter was used to extract meaningful spikes from all recorded signals, and Equation is as follows. Wherein, X represents a root mean square (RMS) for noise, and k is a factor that determines each threshold. Here, the threshold consisted of a total of three factors (0.6, 1 and 3). […] This process was performed using a MATLAB (Mathworks Inc., Natick, Massachusetts, USA) program for all 60 channels (FIG. 7).

SMILES: Cn1c(=O)c2c(ncn2C)n(C)c1=O [caffeine, 1,3,7-trimetnylxanthine]
- increase of neural activity after washing (1 mM caffeine alone, after washing): ≥ 200%

SMILES: COc1ccc([C@@H]2CC(=O)c3c(O)cc(O[C@@H]4O[C@H](CO[C@@H]5O[C@@H](C)[C@H](O)[C@@H](O)[C@H]5O)[C@@H](O)[C@H](O)[C@H]4O)cc3O2)cc1O [hesperidin]
- neural activity after washing: maintained without a significant increase; also recorded: neural activity inhibitory effect persisted
- degree of neural activity compared to treatment of caffeine alone: significantly reduced

SMILES: C[C@@H]1O[C@@H](OC[C@H]2O[C@@H](Oc3cc(O)c4c(c3)O[C@H](c3ccc(O)cc3)CC4=O)[C@H](O)[C@@H](O)[C@@H]2O)[C@H](O)[C@H](O)[C@H]1O [narirutin]
- neural activity after washing: maintained without a significant increase; also recorded: neural activity inhibitory effect persisted
- degree of neural activity compared to treatment of caffeine alone: significantly reduced
